Results taken from PubChem BioAssay (NCI).
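Compound exposure: 48 hours, 5 concentrations, 96-well plates. TGI is the concentration that stops growth completely.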

How the values were obtained:
Assay in all cases: NCI tumour cell line growth inhibition, 48 h
SR leukemia = tested on: SR leukemia
EKVX NSCLC = tested on: EKVX NSCLC
HOP-62 NSCLC = tested on: HOP-62 NSCLC
NCI-H460 lung = tested on: NCI-H460 lung
M14 melanoma = tested on: M14 melanoma
LXFL 529 NSCLC = tested on: LXFL 529 NSCLC
MOLT-4 leukemia = tested on: MOLT-4 leukemia
SNB-78 CNS = tested on: SNB-78 CNS
K-562 leukemia = tested on: K-562 leukemia
SF-295 CNS = tested on: SF-295 CNS
MALME-3M melanoma = tested on: MALME-3M melanoma
HCC-2998 colon = tested on: HCC-2998 colon
NCI-H522 lung = tested on: NCI-H522 lung
KM12 colon = tested on: KM12 colon
SF-268 CNS = tested on: SF-268 CNS
RXF 393 renal = tested on: RXF 393 renal
DMS 273 small cell lung = tested on: DMS 273 small cell lung
UACC-257 melanoma = tested on: UACC-257 melanoma
UACC-62 melanoma = tested on: UACC-62 melanoma
SK-MEL-28 melanoma = tested on: SK-MEL-28 melanoma
CAKI-1 renal = tested on: CAKI-1 renal
HCT-116 colon = tested on: HCT-116 colon
ACHN renal = tested on: ACHN renal
NCI-H226 lung = tested on: NCI-H226 lung
SN12C renal = tested on: SN12C renal
HT29 colon = tested on: HT29 colon
SNB-19 CNS = tested on: SNB-19 CNS
DLD-1 colon = tested on: DLD-1 colon
SNB-75 CNS = tested on: SNB-75 CNS
COLO 205 colon = tested on: COLO 205 colon
U251 CNS = tested on: U251 CNS
IGROV1 ovarian = tested on: IGROV1 ovarian
OVCAR-8 ovarian = tested on: OVCAR-8 ovarian
SK-MEL-5 melanoma = tested on: SK-MEL-5 melanoma
M19-MEL melanoma = tested on: M19-MEL melanoma
XF 498 CNS = tested on: XF 498 CNS
UO-31 renal = tested on: UO-31 renal
TK-10 renal = tested on: TK-10 renal
CCRF-CEM leukemia = tested on: CCRF-CEM leukemia
HL-60(TB) leukemia = tested on: HL-60(TB) leukemia
HOP-18 NSCLC = tested on: HOP-18 NSCLC
OVCAR-4 ovarian = tested on: OVCAR-4 ovarian
SK-MEL-2 melanoma = tested on: SK-MEL-2 melanoma
DMS 114 small cell lung = tested on: DMS 114 small cell lung
OVCAR-3 ovarian = tested on: OVCAR-3 ovarian
NCI-H23 lung = tested on: NCI-H23 lung
LOX IMVI melanoma = tested on: LOX IMVI melanoma
SF-539 CNS = tested on: SF-539 CNS
HOP-92 NSCLC = tested on: HOP-92 NSCLC
RPMI-8226 leukemia = tested on: RPMI-8226 leukemia
OVCAR-5 ovarian = tested on: OVCAR-5 ovarian
SK-OV-3 ovarian = tested on: SK-OV-3 ovarian
786-0 renal = tested on: 786-0 renal
A549 NSCLC = tested on: A549 NSCLC
HCT-15 colon = tested on: HCT-15 colon
KM20L2 colon = tested on: KM20L2 colon
A498 renal = tested on: A498 renal
RXF-631 renal = tested on: RXF-631 renal
NCI/ADR-RES ovarian = tested on: NCI/ADR-RES ovarian
P388/ADR leukemia = tested on: P388/ADR leukemia
P388 leukemia = tested on: P388 leukemia
SW-620 colon = tested on: SW-620 colon
SN12K1 renal = tested on: SN12K1 renal
MCF7 breast = tested on: MCF7 breast

Measured: TGI

CCOC(=O)COS(=O)(=O)C(F)(F)F
34 µM: LOX IMVI melanoma
36.7 µM: DMS 273 small cell lung
49.1 µM: SR leukemia
50.5 µM: RPMI-8226 leukemia
35.1 µM: HCT-15 colon
31.7 µM: DMS 114 small cell lung
not listed: NCI/ADR-RES ovarian | P388/ADR leukemia | P388 leukemia | SW-620 colon | SN12K1 renal | MCF7 breast
> 100 µM: all other assays above

C#CCn1c(=O)c(C#N)c(O)c2cc3ccccc3nc21
> 31.6 µM: SF-268 CNS
not listed: SR leukemia | M14 melanoma | LXFL 529 NSCLC | ACHN renal | TK-10 renal | OVCAR-4 ovarian | 786-0 renal | KM20L2 colon | RXF-631 renal
> 100 µM: all other assays above
